Patent publication US10538555B2, “Macrocyclic inhibitors of the PD-1/PD-L1 and CD80(B7-1)/PD-L1 protein/protein interactions” (BRISTOL-MYERS SQUIBB COMPANY, priority 2014, dated 2020)
pIC50: −log10 of the molar value. *1 amine or outer side, *2 acyl side, *3 side chain or, on linkers, in order; H or OH if unused. Where a SMILES comes first, the peptide text is derived from it. Bridges are numbered along the chain shown (N, C = ends). [ ]: non-standard residue; d: D form. ξ: configuration not given here. Trp(1-CH2COOH) = N[C@@H](Cc1cn(CC(=O)O)c2ccccc12)C(=O)O; Phe(3,4,5-F3) = N[C@@H](Cc1cc(F)c(F)c(F)c1)C(=O)O; Phe(3,4-F2) = N[C@@H](Cc1ccc(F)c(F)c1)C(=O)O; NMePhe(4-F) = CN[C@@H](Cc1ccc(F)cc1)C(=O)O; d(cisHyp) = O=C(O)[C@H]1C[C@@H](O)CN1; Hyp = O=C(O)[C@@H]1C[C@@H](O)CN1; NMeF = CN[C@@H](Cc1ccccc1)C(=O)O; X1 = O=C([C@H]1COCCN1[*:1])[*:2]; dNMeF = CN[C@H](Cc1ccccc1)C(=O)O; dHyp = O=C(O)[C@H]1C[C@H](O)CN1; NMehSer = CN[C@@H](CCO)C(=O)O; NMeNle = CCCC[C@H](NC)C(=O)O; Pip = O=C(O)[C@@H]1CCCCN1; dPip = O=C(O)[C@H]1CCCCN1; hSer = N[C@@H](CCO)C(=O)O; NMeA = CN[C@@H](C)C(=O)O; Orn = NCCC[C@H](N)C(=O)O; Dab = NCC[C@H](N)C(=O)O; ξC = NC(CS)C(=O)O

Target: T1, Human PD-L1/PD-1 (Homo sapiens, UniProt Q9NZQ7)
T1 construct: TVMV protease cleavage site (C); made in house; host or cells: HEK293T cells
Assay: HTRF Human PD-L1/PD-1 binding assay (PD-1-Ig/PD-L1-His)
Details: PD-L1-His 10 nM, PD-1-Ig 20 nM; class symbol; read-out: HTRF Human PD-L1/PD-1 Binding Assay IC50 Range
In short: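 Competition of macrocyclic peptides for PD-1/PD-L1 binding measured by HTRF in dPBS containing 0.1% BSA and 0.05% Tween-20. Compound and PD-L1-His (10 nM final) incubated 15 min before PD-1-Ig (20 nM final) and a further 15 min.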

T1 sequence (Q9NZQ7 with tags, fused parts or gaps): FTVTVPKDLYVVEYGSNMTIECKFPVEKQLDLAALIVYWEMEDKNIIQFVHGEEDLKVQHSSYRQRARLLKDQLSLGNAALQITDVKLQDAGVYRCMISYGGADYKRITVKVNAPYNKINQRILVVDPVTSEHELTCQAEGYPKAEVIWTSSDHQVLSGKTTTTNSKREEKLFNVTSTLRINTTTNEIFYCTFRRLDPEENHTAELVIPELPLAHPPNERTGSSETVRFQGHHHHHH

CCCC[C@H]1C(=O)N(C)[C@@H](CCCC)C(=O)N[C@@H](CC(C)C)C(=O)N[C@H](C(=O)NCC(N)=O)CSCC(=O)N[C@@H](Cc2ccc(OC)cc2)C(=O)N(C)[C@@H](C)C(=O)N[C@@H](CC(=O)O)C(=O)N2CCC[C@H]2C(=O)N[C@@H](Cc2cnc[nH]2)C(=O)N[C@@H](CCCCN)C(=O)N2C[C@H](O)C[C@@H]2C(=O)N[C@@H](Cc2c[nH]c3ccccc23)C(=O)N[C@@H](CCCCN)C(=O)N[C@@H](Cc2cn(CC(=O)O)c3ccccc23)C(=O)N1C [Example 7154] ({CH2CO}-Y(Me)[NMeA]DPHK[d(cisHyp)]WK[Trp(1-CH2COOH)][NMeNle][NMeNle]LCG-NH2; thioether N-14) showed a pIC50 of 7.00 to 8.00.

CCCC[C@H]1C(=O)N2C[C@H](O)C[C@@H]2C(=O)N[C@@H](CC(=O)O)C(=O)N[C@@H](C(C)C)C(=O)N(C)[C@@H](Cc2ccccc2)C(=O)N[C@@H](CCC(=O)O)C(=O)N2C[C@H](O)C[C@@H]2C(=O)N[C@@H](Cc2c[nH]c3ccccc23)C(=O)N[C@@H](Cc2ccc(O)cc2)C(=O)N[C@@H](CC(C)C)C(=O)N[C@H](C(=O)NCC(N)=O)CSCC(=O)N[C@@H](Cc2cc(F)c(F)c(F)c2)C(=O)N(C)[C@@H](Cc2ccccc2)C(=O)N1C [Example 9330] ({CH2CO}-[Phe(3,4,5-F3)][NMeF][NMeNle][d(cisHyp)]DV[NMeF]E[d(cisHyp)]WYLCG-NH2; thioether N-13) showed a pIC50 of 7.00 to 8.00.

CCCC[C@H]1C(=O)N(C)[C@@H](CCCC)C(=O)N[C@@H](CCC(=O)O)C(=O)N[C@H](C(=O)NCC(N)=O)CSCC(=O)N[C@@H](Cc2ccc(OC)cc2)C(=O)N(C)[C@@H](C)C(=O)N[C@@H](CC(N)=O)C(=O)N2CCC[C@H]2C(=O)N[C@@H](Cc2cnc[nH]2)C(=O)N[C@@H](CCCCN)C(=O)N2C[C@H](O)C[C@H]2C(=O)N[C@@H](Cc2c[nH]c3ccccc23)C(=O)N[C@@H](CCN)C(=O)N[C@@H](Cc2c[nH]c3ccccc23)C(=O)N1C [Example 7118] ({CH2CO}-Y(Me)[NMeA]NPHK[Hyp]W[Dab]W[NMeNle][NMeNle]ECG-NH2; thioether N-14) was tested, and the pIC50 was 8.00 to 9.00.

In the case of CCCC[C@H]1C(=O)N2C[C@@H](O)C[C@@H]2C(=O)N[C@@H](CC(=O)O)C(=O)N[C@@H](C(C)C)C(=O)N(C)[C@@H](Cc2ccccc2)C(=O)N[C@@H](CCC(=O)O)C(=O)N2CCOC[C@@H]2C(=O)N[C@@H](Cc2cn(CC(=O)O)c3ccccc23)C(=O)N[C@@H](Cc2ccc(O)cc2)C(=O)N[C@@H](CCCN)C(=O)N[C@H](C(=O)NCC(N)=O)CSCC(=O)N[C@@H](Cc2cc(F)c(F)c(F)c2)C(=O)N(C)[C@@H](Cc2ccccc2)C(=O)N1C [Example 9270] ({CH2CO}-[Phe(3,4,5-F3)][NMeF][NMeNle][dHyp]DV[NMeF]E[X1][Trp(1-CH2COOH)]Y[Orn]CG-NH2; thioether N-13), the pIC50 was 8.00 to 9.00.

In the case of CCCC[C@H]1C(=O)N(C)[C@@H](CCCC)C(=O)N[C@@H](CCCNC(=N)N)C(=O)NC(C(=O)NCC(N)=O)CSCC(=O)N[C@@H](Cc2ccc(O)cc2)C(=O)N(C)[C@@H](C)C(=O)N[C@@H](CC(N)=O)C(=O)N2CCC[C@H]2C(=O)N[C@@H](CCO)C(=O)N[C@@H](CO)C(=O)N2CCC[C@H]2C(=O)N[C@@H](Cc2c[nH]c3ccccc23)C(=O)N[C@@H](CO)C(=O)N[C@@H](Cc2c[nH]c3ccccc23)C(=O)N1C (some centres unmarked) [Example 10024] ({CH2CO}-Y[NMeA]NP[hSer]SPWSW[NMeNle][NMeNle]R[ξC]G-NH2; thioether N-14), the pIC50 was 7.00 to 8.00.

COCC[C@H]1C(=O)N2C[C@@H](O)C[C@@H]2C(=O)N[C@@H](CC(=O)O)C(=O)N[C@@H](C(C)C)C(=O)N(C)[C@H](Cc2ccccc2)C(=O)N[C@@H](Cc2ccc(O)cc2)C(=O)N2C[C@@H](O)C[C@@H]2C(=O)N[C@@H](Cc2c[nH]c3ccccc23)C(=O)N[C@@H](Cc2ccc(O)cc2)C(=O)N[C@@H](CC(C)C)C(=O)N[C@H](C(=O)NCC(N)=O)CSCC(=O)N[C@@H](Cc2ccc(F)c(F)c2)C(=O)N(C)[C@@H](Cc2ccccc2)C(=O)N1C [Example 9234] ({CH2CO}-[Phe(3,4-F2)][NMeF][NMehSer](Me)[dHyp]DV[dNMeF]Y[dHyp]WYLCG-NH2; thioether N-13) showed a pIC50 of 8.00 to 9.00.

For CCCC[C@H]1C(=O)N(C)[C@@H](CCCC)C(=O)N[C@@H](CC(=O)O)C(=O)N[C@H](C(=O)NCC(N)=O)CSCC(=O)N[C@@H](Cc2ccc(O)cc2)C(=O)N2CCCC[C@H]2C(=O)N[C@@H](CC(=O)O)C(=O)N2CCC[C@H]2C(=O)N[C@@H](Cc2cnc[nH]2)C(=O)N[C@@H](CCCCN)C(=O)N2C[C@H](O)C[C@H]2C(=O)N[C@@H](Cc2c[nH]c3ccccc23)C(=O)N[C@@H](CCCCN)C(=O)N[C@@H](Cc2c[nH]c3ccccc23)C(=O)N1C [Example 1259] ({CH2CO}-Y[Pip]DPHK[Hyp]WKW[NMeNle][NMeNle]DCG-NH2; thioether N-14), the pIC50 was 8.00 to 9.00.

In the case of CCCC[C@H]1C(=O)N(C)[C@@H](CCCC)C(=O)N[C@@H](CCC(=O)O)C(=O)N[C@H](C(=O)NCC(N)=O)CSCC(=O)N[C@@H](Cc2ccc(O)cc2)C(=O)N(C)[C@@H](C)C(=O)N[C@@H](CC(N)=O)C(=O)N2CCC[C@H]2C(=O)N[C@@H](CO)C(=O)N[C@@H](CC(C)C)C(=O)N2C[C@H](O)C[C@H]2C(=O)N[C@@H](Cc2c[nH]c3ccccc23)C(=O)N[C@@H](CCN)C(=O)N[C@@H](Cc2cn(CC(=O)O)c3ccccc23)C(=O)N1C [Example 6136] ({CH2CO}-Y[NMeA]NPSL[Hyp]W[Dab][Trp(1-CH2COOH)][NMeNle][NMeNle]ECG-NH2; thioether N-14), the pIC50 was 7.00 to 8.00.

In the case of CCCC[C@H]1C(=O)N2CCC[C@@H]2C(=O)N[C@@H](CCC(=O)O)C(=O)N[C@@H](C(C)C)C(=O)N(C)[C@@H](Cc2ccccc2)C(=O)N[C@@H](CC(=O)O)C(=O)N2CCCC[C@@H]2C(=O)N[C@@H](Cc2c[nH]c3ccccc23)C(=O)N[C@@H](Cc2ccc(O)cc2)C(=O)N[C@@H](CC(C)C)C(=O)N[C@H](C(=O)NCC(N)=O)CSCC(=O)N[C@@H](Cc2cc(F)c(F)c(F)c2)C(=O)N(C)[C@@H](Cc2ccc(F)cc2)C(=O)N1C [Example 10580] ({CH2CO}-[Phe(3,4,5-F3)][NMePhe(4-F)][NMeNle][dP]EV[NMeF]D[dPip]WYLCG-NH2; thioether N-13), the pIC50 was 8.00 to 9.00.

CCCC[C@H]1C(=O)N2C[C@H](O)C[C@@H]2C(=O)N[C@@H](CC(=O)O)C(=O)N[C@@H](C(C)C)C(=O)N(C)[C@@H](Cc2ccccc2)C(=O)N[C@@H](CCC(=O)O)C(=O)N2C[C@H](O)C[C@@H]2C(=O)N[C@@H](Cc2c[nH]c3ccccc23)C(=O)N[C@@H](Cc2ccc(O)cc2)C(=O)N[C@@H](CCCCN)C(=O)N[C@H](C(=O)NCC(N)=O)CSCC(=O)N[C@@H](Cc2cc(F)c(F)c(F)c2)C(=O)N(C)[C@@H](Cc2ccccc2)C(=O)N1C [Example 9331] ({CH2CO}-[Phe(3,4,5-F3)][NMeF][NMeNle][d(cisHyp)]DV[NMeF]E[d(cisHyp)]WYKCG-NH2; thioether N-13) showed a pIC50 of 8.00 to 9.00.

With CCCC[C@H]1C(=O)N2C[C@H](O)C[C@@H]2C(=O)N[C@@H](CC(=O)O)C(=O)N[C@@H](C(C)C)C(=O)N(C)[C@@H](Cc2ccccc2)C(=O)N[C@@H](CCC(=O)O)C(=O)N2C[C@@H](O)C[C@@H]2C(=O)N[C@@H](Cc2c[nH]c3ccccc23)C(=O)N[C@@H](Cc2ccc(O)cc2)C(=O)N[C@@H](CCCN)C(=O)N[C@H](C(=O)NCC(N)=O)CSCC(=O)N[C@@H](Cc2cc(F)c(F)c(F)c2)C(=O)N(C)[C@@H](Cc2ccccc2)C(=O)N1C [Example 9374] ({CH2CO}-[Phe(3,4,5-F3)][NMeF][NMeNle][d(cisHyp)]DV[NMeF]E[dHyp]WY[Orn]CG-NH2; thioether N-13) the pIC50 was 7.00 to 8.00.
